These results are taken from ChEMBL document CHEMBL5360547 (Eur J Med Chem, 2023).

For data set [1], the system named is SH-SY5Y. Put plainly: Neuroprotective activity against oxygen glucose deprivation induced ischemic stroke model in human SH-SY5Y cells assessed as cell viability at 20 uM incubated for 24 hrs by CCK-8 assay. Type of data set: functional. Conditions: read-out: Activity. A general note: Tetrazolium assays rely on reduction of a dye to a coloured formazan, in cell work by metabolically active cells.

For data set [2], the system named is SH-SY5Y. Description: Neuroprotective activity against oxygen glucose deprivation induced ischemic stroke model in human SH-SY5Y cells assessed as cell viability at 2 uM incubated for 24 hrs by CCK-8 assay. Type of data set: functional. The note with it: read-out: Activity.
The nature of data set [3]: Toxicity in middle cerebral artery occlusion-induced brain infarction C57BL/6 mouse model assessed as survival rate at 10 mg/kg, ip and measured after 24 hrs. Type of data set: organism-based. The note with it: in vivo.
A short description of a further data set: in vivo. Conditions: C57BL/6, mouse, ip, 20 mg/kg.
Data set [4] has as its system Mus musculus. Put plainly: Neuroprotective activity against middle cerebral artery occlusion-induced brain infarction C57BL/6 mouse model assessed as decrease in neurological deficit score at 10 mg/kg, ip and measured after 24 hrs by animal behavioral study relative to control. It is filed as functional.
Data set [5] deals with Cortical neurone. Put plainly: Cytotoxicity against primary C57BL/6J E14-17 mouse Cortical neuron assessed as decrease in cell viability upto 50 uM incubated for 24 hrs by CCK-8 assay. It is filed as toxicity, cell-based.
The subject of data set [6] is Cortical neurone. Description: Neuroprotective activity against oxygen glucose deprivation induced ischemic stroke model in primary C57BL/6J E14-17 mouse Cortical neurons assessed as increase in cell viability at 0.5 to 20 uM incubated for 24 hrs by CCK-8 assay. It is filed as functional, cell-based. Conditions: dose 0.5-20 µM.
Data set [7] relates to Mus musculus. Description: Neuroprotective activity against middle cerebral artery occlusion-induced brain infarction C57BL/6 mouse model assessed as reduction in cerebral infarct volume at 20 mg/kg, ip and measured after 24 hrs by TTC staining based assay. Type of data set: functional, organism-based.
Data set [8] has as its system Cortical neurone. Description: Neuroprotective activity against oxygen glucose deprivation induced ischemic stroke model in primary C57BL/6J E14-17 mouse Cortical neurons assessed as increase in cell viability at 10 uM incubated for 24 hrs by CCK-8 assay (Rvb= 57.43 +/- 2.54 %). It is filed as functional.
Data set [9] concerns Cortical neurone. Description: Neuroprotective activity against oxygen glucose deprivation induced ischemic stroke model in primary C57BL/6J E14-17 mouse Cortical neurons assessed as increase in cell viability at 1 uM incubated for 24 hrs by CCK-8 assay (Rvb= 57.43 +/- 2.54 %). It is filed as functional.
In data set [10] the test system is Cortical neurone. Put plainly: Cytotoxicity against primary C57BL/6J E14-17 mouse Cortical neuron assessed as decrease in cell viability at 1 uM incubated for 24 hrs by CCK-8 assay relative to control. Type of data set: toxicity, cell-based.
The test system of data set [11] is Cortical neurone. Description: Cytotoxicity against primary C57BL/6J E14-17 mouse Cortical neuron assessed as decrease in cell viability at 10 uM incubated for 24 hrs by CCK-8 assay relative to control. Type of data set: toxicity, cell-based.
Data set [12] concerns Cortical neurone. Put plainly: Cytotoxicity against primary C57BL/6J E14-17 mouse Cortical neuron assessed as decrease in cell viability at 0.1 to 20 uM incubated for 24 hrs by CCK-8 assay. Type of data set: toxicity, cell-based. The note with it: dose 0.1-20 µM.
For data set [13], the system named is Cortical neurone. Put plainly: Neuroprotective activity against oxygen glucose deprivation induced ischemic stroke model in primary C57BL/6J E14-17 mouse Cortical neurons assessed as increase in cell viability at 0.1 to 20 uM incubated for 24 hrs by CCK-8 assay. It is filed as functional, cell-based. Conditions: dose 0.1-20 µM.
Data set [14] relates to Cortical neurone. Description: Neuroprotective activity against oxygen glucose deprivation induced ischemic stroke model in primary C57BL/6J E14-17 mouse Cortical neurons assessed as increase in cell viability at 5 uM incubated for 24 hrs by CCK-8 assay (Rvb= 57.43 +/- 2.54 %). It is filed as functional.
Data set [15] deals with Cortical neurone. Description: Cytotoxicity against primary C57BL/6J E14-17 mouse Cortical neuron assessed as decrease in cell viability at 0.1 to 5 uM incubated for 24 hrs by CCK-8 assay. Type of data set: toxicity, cell-based. The note with it: dose 0.1-5 µM.
Data set [16] concerns Cortical neurone. Description: Cytotoxicity against primary C57BL/6J E14-17 mouse Cortical neuron assessed as decrease in cell viability at 10 to 20 uM incubated for 24 hrs by CCK-8 assay. Type of data set: toxicity, cell-based. Conditions: dose 10-20 µM.

The source made the active and inactive calls. No cut-off for these calls is given here.

With `O=C(/C=C/c1ccc(O)c2c1[C@H](C(=O)O[C@H](Cc1ccc(O)c(O)c1)C(=O)O)[C@@H](c1ccc(O)c(O)c1)O2)O[C@H](Cc1ccc(O)c(O)c1)C(=O)O`, the viability at 20 µM in the data set on SH-SY5Y [1] stood at 78.1%. The viability at 2 µM in the data set with SH-SY5Y [2] was found to be 73.4%.
As usually defined, the mortality is the share of the test organisms that died. A high value points to fewer survivors. Consider `CCCCCCCCN(C)[C@H]1CC[C@@H](c2ccc(Cl)c(Cl)c2)c2ccccc21` [listing 1 of 2 here], for which, in [3], the survival at 24 h is 100%. This compound also registered a mortality at 24 h in “in vivo” of 35.7%. For the same compound, the results for the Activity in the data set on Mus musculus [4] and with Cortical neurone [5] were 1.5 and “Non-Toxic”, respectively.
`CCCCCCCCN(C)[C@H]1CC[C@@H](c2ccc(Cl)c(Cl)c2)c2ccccc21` [listing 2 of 2 here]: the outcome in the data set with Cortical neurone [6] and in the data set on Mus musculus [7] was Active.
Take `COc1ccc(CN[C@@H]2CC[C@@H](c3ccc(Cl)c(Cl)c3)c3ccccc32)cc1OC` (relative stereo): the Activity in the data set with Cortical neurone [8] was 66.65%; in the data set with Cortical neurone [9], 62.06%; in the data set with Cortical neurone [10], 99.79%; in the data set with Cortical neurone [11], 95.48%; in the data set with Cortical neurone [6] it was “Dose-Dependent Effect”; with Cortical neurone [5] it was “Toxic”.
With `Clc1ccc([C@@H]2CC[C@@H](NC3CCCCC3)c3ccccc32)cc1Cl` (relative stereo), the Activity in the data set on Cortical neurone [8] is 69.46%; in the data set with Cortical neurone [9] it was 61.62%; in the data set with Cortical neurone [10], 97.01%; in the data set with Cortical neurone [11], 102.77%; with Cortical neurone [6], “Dose-Dependent Effect”; with Cortical neurone [5], “Toxic”.
Consider `Cc1cccc(CN[C@@H]2CC[C@@H](c3ccc(Cl)c(Cl)c3)c3ccccc32)c1` (relative stereo), for which the Activity was 81.18% in the data set on Cortical neurone [8]; 65.53% in the data set on Cortical neurone [9]; 96.85% with Cortical neurone [10]; 102.54% with Cortical neurone [11]; “Dose-Dependent Effect” with Cortical neurone [6]; “Toxic” in the data set on Cortical neurone [5].
For the compound `CC(=O)N[C@@H]1CC[C@@H](c2ccc(Cl)c(Cl)c2)c2ccccc21` (relative stereo), the Activity in the data set with Cortical neurone [8] was 77.31%; in the data set with Cortical neurone [9] it was 66.22%; in the data set on Cortical neurone [10] it was 102.6%; in the data set on Cortical neurone [11], 101.23%; with Cortical neurone [6], “Dose-Dependent Effect”; in the data set with Cortical neurone [5], “Toxic”.
For the compound `CC1=NN(c2ccccc2)C(=O)C1` [EDARAVONE], the Activity in the data set with Cortical neurone [8] worked out at 64.15%; in the data set on Cortical neurone [9], 64.39%; with Cortical neurone [10], 98.61%; in the data set on Cortical neurone [11], 96.6%. In addition, in the data set with SH-SY5Y [2], the viability at 2 µM is 71.3%.
Regarding `NCCc1c[nH]c2ccc(O)cc12` [SEROTONIN], the Activity result in the data set on Cortical neurone [12] is given as “Non-Toxic”. Moreover, in the data set with Cortical neurone [13], the result was inactive.
Turning to `CN[C@H]1CC[C@@H](c2ccc(Cl)c(Cl)c2)c2ccccc21` [SERTRALINE], the Activity is recorded as 58.85% in the data set with Cortical neurone [8] (24 h, 10 µM); 67.21% in the data set on Cortical neurone [9] (24 h, 1 µM); 99.08% in the data set with Cortical neurone [10]; 65.9% in the data set on Cortical neurone [14]; 94.25% in the data set on Cortical neurone [11]; “Non-Toxic” with Cortical neurone [15]. The figures for the Activity entry in the data set on Cortical neurone [16] and in the data set on Cortical neurone [5] were “Toxic” and “Non-Toxic”, respectively. For the same compound, the viability at 20 µM in the data set with SH-SY5Y [1] was determined as 30.5%. The viability at 2 µM in the data set on SH-SY5Y [2] was found to be 81.9%.
